In patent US10611760B2, “Therapeutic compounds as inhibitors of the orexin-1 receptor” (C4X Discovery Limited, priority 2014, dated 2020):
Where a name gives a salt, the structure may show the parent alone.

Columns and labels:
Type in all cases: cell-based
hOX2R [1] = biological target: T1, hOX2R (Homo sapiens, UniProt O43614); experiment: Intracellular calcium measurements using division-arrested cells, OX2; settings: agonist orexin B at 2×EC50, * = single experiment, otherwise average of at least two, read-out: pIC50 OX2 (converted)
T1 sequence (O43614 1-444): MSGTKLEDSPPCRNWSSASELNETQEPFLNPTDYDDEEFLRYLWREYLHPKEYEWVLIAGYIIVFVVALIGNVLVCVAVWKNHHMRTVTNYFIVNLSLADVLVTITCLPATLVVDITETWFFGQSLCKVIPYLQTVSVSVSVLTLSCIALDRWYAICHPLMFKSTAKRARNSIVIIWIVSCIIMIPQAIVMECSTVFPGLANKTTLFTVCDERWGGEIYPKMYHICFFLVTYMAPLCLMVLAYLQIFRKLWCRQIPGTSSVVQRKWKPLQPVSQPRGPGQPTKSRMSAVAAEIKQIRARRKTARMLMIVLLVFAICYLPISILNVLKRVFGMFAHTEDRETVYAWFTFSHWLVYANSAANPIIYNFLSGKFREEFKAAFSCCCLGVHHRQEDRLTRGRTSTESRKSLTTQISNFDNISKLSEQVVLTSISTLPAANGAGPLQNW
In short: (§1)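 Division-arrested cells expressing human OX1 or OX2 were seeded for 16 h, then loaded with Calcium 5 dye plus probenecid for 1 h at 37 °C. Compounds in HEPES-buffered HBSS with 0.1% BSA, pH 7.4, top final concentration 10 μM, were added 10 min before the FlexStation calcium read.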

hOX2R [2] = biological target: T1, hOX2R; experiment: Intracellular calcium measurements using stable-replicating cells, Method A, OX2; settings: orexin-A at 4×EC50, * = single experiment, read-out: pIC50 OX2 (converted)
Description: (§2) Intracellular Calcium Measurements Using Stable-replicating Cells:
(§3) Method A (Table 2): Test compounds are prepared as 10 mM stock solutions in DMSO, warmed briefly for 20 seconds at 37° C. and serially diluted in half log concentrations with DMSO followed by dilution with assay buffer (HBSS (Sigma-Aldrich, H8264) containing 10 mM HEPES (Invitrogen, 15630080) and pH adjusted to 7.4) to a top final assay concentration of 10 μM.
(§4) Human OX1 (CT-A674) and human OX2 (CT-A675) receptor-expressing stable-replicating cells are grown in a culture medium, Ham F12 (Invitrogen, 31765-035) containing 10% fetal bovine serum (Invitrogen, 16000044), 1% non-essential amino acids (Invitrogen, 11140-050), 100 U/mL Penicillin/Streptomycin (Invitrogen, 15140-122) and G418 (Invitrogen, 11811023) at a concentration of 400 μg/mL. The cells are seeded at a density of 7,000 cells/well into black, clear bottom 384-well plates (Corning, 3683) and incubated at 37° C. in air supplemented with 5% CO2 for 16 hrs.
(§5) Loading dye (25 μL/well), prepared from a FLIPR Calcium 6 Assay kit (Molecular Devices, R8190-Explorer) according to the manufacturer's instructions, and the serially diluted test compounds (10 μL/well) are added to the plate. The plate is then incubated for 30 mins at 37° C. in 5% CO2, then for 30 mins at ambient temperature and placed into a FlexStation III reader.

hOX1R [3] = biological target: T2, hOX1R (Homo sapiens, UniProt O43613); experiment: Intracellular calcium measurements using stable-replicating cells, Method A, OX1; settings: orexin-A at 4×EC50, * = single experiment, read-out: pIC50 OX1 (converted)
T2 sequence (O43613 1-425): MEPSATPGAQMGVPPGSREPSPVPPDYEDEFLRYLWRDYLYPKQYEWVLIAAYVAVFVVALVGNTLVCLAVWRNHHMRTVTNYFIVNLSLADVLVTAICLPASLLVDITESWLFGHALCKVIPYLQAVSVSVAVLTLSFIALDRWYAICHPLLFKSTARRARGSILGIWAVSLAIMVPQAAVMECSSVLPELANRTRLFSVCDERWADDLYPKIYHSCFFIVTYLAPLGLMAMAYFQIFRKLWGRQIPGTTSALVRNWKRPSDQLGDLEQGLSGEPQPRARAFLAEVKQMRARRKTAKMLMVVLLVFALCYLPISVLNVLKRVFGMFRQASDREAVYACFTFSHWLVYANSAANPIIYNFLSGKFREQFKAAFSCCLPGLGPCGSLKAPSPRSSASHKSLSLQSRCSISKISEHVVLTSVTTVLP
Description: as §2, §3, §4, §5

hOX1R [4] = biological target: T2, hOX1R; experiment: Intracellular calcium measurements using division-arrested cells, OX1; settings: agonist orexin A at 2×EC50, * = single experiment, otherwise average of at least two, read-out: pIC50 OX1 (converted)
In short: as §1

hOX2R [5] = biological target: T1, hOX2R; experiment: Intracellular calcium measurements using stable-replicating cells, Method B (CHO cells, FLIPR Tetra), OX2; settings: orexin A at EC75, read-out: pIC50 OX2 (converted)
Description: as §2
(§6) Human OX1 or human OX2 receptor expressing CHO cells are plated into 384 well black, clear bottom, CellBIND plates at a seeding density of 10,000 cells/75 μL growth media. The seeded plates are incubated at 37° C. in air supplemented with 5% CO2 overnight.
(§7) The next day media is removed and replaced with 30 μL/well of cell loading buffer (a vial of Calcium 5 is solubilized in 20 mL of assay buffer) and the cells incubated for 1 hr at 37° C. The serially diluted test compounds (10 μL/well) are added to the cell plate by the FLIPR Tetra and the addition is monitored for 5 mins by the instrument. The cell plate is then removed and incubated for additional 25 mins in a humidified incubator at […] prior to being placed back into the FLIPR Tetra. Finally 10 μL of orexin A in assay buffer +0.1% (w/v) bovine serum albumin is dispensed by the FLIPR Tetra at an EC75 concentration determined for each assay run. Fluorescence is measured at excitation and emission wavelengths of 485 nm and 525 nm respectively and data analyzed using GraphPad Prism for the EC75 value of orexin A and Aplus to determine an IC50 value for each test compound.

hOX1R [6] = biological target: T2, hOX1R; experiment: Intracellular calcium measurements using stable-replicating cells, Method B (CHO cells, FLIPR Tetra), OX1; settings: orexin A at EC75, read-out: pIC50 OX1 (converted)
Description: as §2, §6, §7

Structure (SMILES)	IC50 (hOX2R [1]) [nM]	IC50 (hOX2R [2]) [nM]	IC50 (hOX1R [3]) [nM]	IC50 (hOX1R [4]) [nM]	IC50 (hOX2R [5]) [nM]	IC50 (hOX1R [6]) [nM]
Cc1nc(-c2ccccc2)c(C(=O)N[C@H](CNc2ccc(Cl)cn2)C(C)C)s1 [Example 6, (S)—N-(1-((5-chloropyridin-2-yl)amino)-3-methylbutan-2-yl)-2-methyl-4-phenylthiazole-5-carboxamide]	> 10000	> 10000	3160	501		
Cc1nc(-c2ccccc2)c(C(=O)N(C)[C@H](CNc2ccc(Cl)cn2)CC(C)C)s1 [Example 9, (S)—N-(1-((5-chloropyridin-2-yl)amino)-4-methylpentan-2-yl)-N,2-dimethyl-4-phenylthiazole-5-carboxamide]	> 10000	> 10000	2000	251		
CC[C@@H](CNc1nc2ccccc2s1)N(C)C(=O)c1cc(Cl)ccc1-n1nccn1 [Example 44, (S)—N-(1-(benzo[d]thiazol-2-ylamino)butan-2-yl)-5-chloro-N-methyl-2-(2H-1,2,3-triazol-2-yl)benzamide]			7.94			1.58
CC[C@@H](CNc1ncc(Cl)cc1[N+](=O)[O-])N(C)C(=O)c1cc(Cl)ccc1-n1nccn1 [Example 45, (S)-5-chloro-N-(1-((5-chloro-3-nitropyridin-2-yl)amino)butan-2-yl)-N-methyl-2-(2H-1,2,3-triazol-2-yl)benzamide]		> 10000	126			
CC[C@@H](CNc1ncc(Cl)cc1N)N(C)C(=O)c1cc(Cl)ccc1-n1nccn1 [Example 60, (S)—N-(1-((3-amino-5-chloropyridin-2-yl)amino)butan-2-yl)-5-chloro-N-methyl-2-(2H-1,2,3-triazol-2-yl)benzamide]		> 10000	39.8			
CC[C@@H](CNc1nc2ccccc2o1)N(C)C(=O)c1nc(C)ccc1-n1nccn1 [Example 62, (S)—N-(1-(benzo[d]oxazol-2-ylamino)butan-2-yl)-N,6-dimethyl-3-(2H-1,2,3-triazol-2-yl)picolinamide]			5.01		2510	3.16
CC[C@@H](CNc1nc2cc(Cl)ccc2o1)N(C)C(=O)c1nc(C)ccc1-n1nccn1 [Example 64, (S)—N-(1-((5-chlorobenzo[d]oxazol-2-yl)amino)butan-2-yl)-N,6-dimethyl-3-(2H-1,2,3-triazol-2-yl)picolinamide]		2510	5.01			
CC[C@@H](CNc1ncc(C(F)(F)F)cn1)N(C)C(=O)c1nc(C)cc2ccccc12 [Example 78, (S)—N,3-dimethyl-N-(1-((5-(trifluoromethyl)pyrimidin-2-yl)amino)butan-2-yl)isoquinoline-1-carboxamide]		1000	25.1			15.8
CC[C@@H](CNc1ncc(C(F)(F)F)cn1)N(C)C(=O)c1nc(C)ccc1-n1cccn1 [Example 90, (S)—N,6-dimethyl-3-(1H-pyrazol-1-yl)-N-(1-((5-(trifluoromethyl)pyrimidin-2-yl)amino)butan-2-yl)picolinamide formic acid salt]					> 1000	2
CC[C@@H](CNc1ncc(C(F)(F)F)cn1)N(C)C(=O)c1c(F)cccc1-n1nccn1 [Example 91, (S)-2-fluoro-N-methyl-6-(2H-1,2,3-triazol-2-yl)-N-(1-((5-(trifluoromethyl)pyrimidin-2-yl)amino)butan-2-yl)benzamide]					> 7940	25.1

Now from value to compound:

IC50 (hOX2R [1]) [nM]	IC50 (hOX2R [2]) [nM]	IC50 (hOX1R [3]) [nM]	IC50 (hOX1R [4]) [nM]	IC50 (hOX2R [5]) [nM]	IC50 (hOX1R [6]) [nM]	Structure (SMILES)
1000	1260					CC[C@@H](CNc1ccc(Cl)cn1)N(C)C(=O)c1cc(C)ccc1-n1nccn1 [Example 1, (S)—N-(1-((5-chloropyridin-2-yl)amino)butan-2-yl)-N,5-dimethyl-2-(2H-1,2,3-triazol-2-yl)benzamide]
1580			25.1	501	1.58	CC[C@@H](CNc1ccc(Cl)cn1)N(C)C(=O)c1cc(Br)ccc1-n1nccn1 [Example 19, (S)-5-bromo-N-(1-((5-chloropyridin-2-yl)amino)butan-2-yl)-N-methyl-2-(2H-1,2,3-triazol-2-yl)benzamide]
			200	3160	100	CC[C@@H](CNc1ccc(Cl)cn1)N(C)C(=O)c1cc(OC(F)(F)F)ccc1-n1nccn1 [Example 20, (S)—N-(1-((5-chloropyridin-2-yl)amino)butan-2-yl)-N-methyl-2-(2H-1,2,3-triazol-2-yl)-5-(trifluoromethoxy)benzamide]
> 10000			2000	> 10000	3980	CC[C@@H](CNc1ccc(Cl)cn1)N(C)C(=O)c1cc(C(F)(F)F)cnc1-n1nccn1 [Example 24, (S)—N-(1-((5-chloropyridin-2-yl)amino)butan-2-yl)-N-methyl-2-(2H-1,2,3-triazol-2-yl)-5-(trifluoromethyl)nicotinamide]
1000	> 10000			1580		CC[C@@H](CNc1ncc(C(F)(F)F)cn1)N(C)C(=O)c1cc(Cl)ccc1-n1nccn1 [Example 39, (S)-5-chloro-N-methyl-2-(2H-1,2,3-triazol-2-yl)-N-(1-((5-(trifluoromethyl)pyrimidin-2-yl)amino)butan-2-yl)benzamide]
> 10000			200	> 5010	20	CC[C@@H](CNc1ccc(C(F)(F)F)nn1)N(C)C(=O)c1cc(Cl)ccc1-n1nccn1 [Example 41, (S)-5-chloro-N-methyl-2-(2H-1,2,3-triazol-2-yl)-N-(1-((6-(trifluoromethyl)pyridazin-3-yl)amino)butan-2-yl)benzamide]
> 5010			31.6	> 3980	5.01	Cc1ccc(-n2nccn2)c(C(=O)N(C)[C@H](CNc2ccc(Cl)cn2)C(C)C)c1 [Example 49, (S)—N-(1-((5-chloropyridin-2-yl)amino)-3-methylbutan-2-yl)-N,5-dimethyl-2-(2H-1,2,3-triazol-2-yl)benzamide]
	316	7.94				CC[C@@H](CNc1ccc(Cl)cn1)N(C)C(=O)c1cc(C)c(C)cc1-n1nccn1 [Example 86, (S)—N-(1-((5-chloropyridin-2-yl)amino)butan-2-yl)-N,4,5-trimethyl-2-(2H-1,2,3-triazol-2-yl)benzamide]
